From article PMC7216583 (Parasites & Vectors, 2020) come the findings set out here.

For this experiment, the system named is Toxoplasma gondii RH-2F tachyzoites. Put plainly: microbe, parasite or virus in culture. To be noted: 72 h.
Setting [1] is: read-out: Parasite inhibition (%) mean, preliminary screen, mean.
Where [2] appears, read: read-out: Parasite inhibition (%) mean, preliminary screen of compound library, mean.
Where [3] appears, read: read-out: Parasite inhibition (%) mean.

Counter-ions that a name gives are not always drawn. Like-named read-outs stand apart in the source and are kept apart here.

On to `NCC1(CC(=O)O)CCCCC1` [Gabapentin HCl], for which the inhibition of growth at 5 µM under setting [1] turned out to be 1.7%.

In the case of `Nc1ccn([C@@H]2O[C@H](CO)[C@@H](O)C2(F)F)c(=O)n1` [Gemcitabine (Gemzar)], under setting [1], the inhibition of growth at 5 µM is 0.1%.

With `C#C[C@]1(O)C=C[C@H]2[C@@H]3CCC4=CC(=O)CC[C@@H]4[C@H]3CC[C@@]21CC` [Gestodene], the inhibition of growth at 5 µM under setting [1] came out at 0.6%.

Take `COc1ccc(Cl)cc1C(=O)NCCc1ccc(S(=O)(=O)NC(=O)NC2CCCCC2)cc1` [Glyburide (Diabeta)]: under setting [2], the inhibition of growth at 5 µM is 1.9%.

Regarding `CN[C@@H]1C[C@@H](N)[C@H](O)[C@@H](O[C@@H]2O[C@H](CO)[C@H](O)[C@@H]3OC4(O[C@@H]23)O[C@H]([C@@H](N)CO)[C@H](O)[C@H](O)[C@@H]4O)[C@@H]1O` (some centres unmarked) [Hygromycin B], the inhibition of growth at 5 µM under setting [2] amounted to 40.4%.

Take `COc1cc(C(C)=O)ccc1OCCCN1CCC(c2noc3cc(F)ccc23)CC1` [Iloperidone (Fanapt)]: the inhibition of growth at 5 µM under setting [2] was 37.8%.

As for `NC(=O)c1ccc(I)c([N+](=O)[O-])c1` [Iniparib (BSI-201)], the inhibition of growth at 5 µM under setting [1] came to 2.4%.

For `CCn1c(=O)c2c(nc(/C=C/c3ccc(OC)c(OC)c3)n2C)n(CC)c1=O` [Istradefylline (KW-6002)], under setting [2], the inhibition of growth at 5 µM was -1.9%.

Consider `c1ccc2c(CCNc3ccc(Nc4ccncc4)cc3)c[nH]c2c1` [JNJ 26854165 (Serdemetan)], for which the inhibition of growth at 5 µM under setting [1] turned out to be 48.9%.

On to `CN1CCN(C(=O)c2cc3cc(Cl)ccc3[nH]2)CC1` [JNJ-7777120], for which, under setting [2], the inhibition of growth at 5 µM turned out to be 67.4%.

In the case of `COc1ccc(CCC(=O)Nc2nc3ccc(Cl)cc3s2)cc1OC` [KY02111], under setting [2], the inhibition of growth at 5 µM is -12.8%.

Consider `COC(=O)CCSCc1ccc(-c2onc(C)c2NC(=O)OC(C)c2ccccc2Cl)cc1` (centres unmarked) [Ki16198], for which the inhibition of growth at 5 µM under setting [2] turned out to be 1.4%.

Regarding `CNC[C@H](O)c1ccc(O)c(O)c1` [L-Adrenaline (Epinephrine)], under setting [3], the inhibition of growth at 5 µM stood at 0.4%.

As for `O[C@@H](COc1cccc2ncccc12)CN1CCN([C@@H]2c3ccccc3[C@@H]3[C@H](c4ccccc42)C3(F)F)CC1` [LY335979 (Zosuquidar 3HCl)], the inhibition of growth at 5 µM under setting [3] is -7.9%.

For the molecule `Cc1cccc(-c2nn3c(c2-c2ccnc4ccc(C(N)=O)cc24)CCC3)n1` [LY2157299], under setting [2], the inhibition of growth at 5 µM was determined as 5.2%.

`Cc1cnc(NC(=O)Nc2cc(Br)c(C)cc2OC[C@@H]2CNCCO2)cn1` [LY2603618 (IC-83)]: the inhibition of growth at 5 µM under setting [2] amounted to 22.7%.

With `NC1=N[C@@]2(c3cc(NC(=O)c4ccc(F)cn4)ccc3F)COC[C@H]2CS1` [LY2886721], the inhibition of growth at 5 µM under setting [1] turned out to be 35.7%.

On to `CN(C(=O)c1ccc(F)cc1C(F)(F)F)C1CCN(c2nnc(-c3ccnn3C)c3ccccc23)CC1` [LY2940680], for which the inhibition of growth at 5 µM under setting [1] came to 2.1%.

Consider `CS(=O)(=O)CCNCc1ccc(-c2ccc3ncnc(Nc4ccc(OCc5cccc(F)c5)c(Cl)c4)c3c2)o1` [Lapatinib Ditosylate (Tykerb)], for which the inhibition of growth at 5 µM under setting [1] was found to be 3.3%.

In the case of `c1ccc([C@H]2CN3CCSC3=N2)cc1` [Levamisole Hydrochloride (Ergamisol)], the inhibition of growth at 5 µM under setting [3] was 63.9%.

In the case of `N[C@@H](Cc1ccc(O)c(O)c1)C(=O)O` [Levodopa (Sinemet)], the inhibition of growth at 5 µM under setting [2] was found to be 12.1%.

As to `C[C@H]1CNCCc2ccc(Cl)cc21` [Lorcaserin HCl], the inhibition of growth at 5 µM under setting [2] came to 34.8%.

As to `CNC(=O)c1ccc(N2C(=S)N(c3ccc(C#N)c(C(F)(F)F)c3)C(=O)C2(C)C)cc1F` [MDV3100 (Enzalutamide)], the inhibition of growth at 5 µM under setting [1] was found to be 35.7%.

Regarding `C=CCn1c(=O)c2cnc(Nc3ccc(N4CCN(C)CC4)cc3)nc2n1-c1cccc(C(C)(C)O)n1` [MK-1775], the inhibition of growth at 5 µM under setting [1] worked out at 0%.

In the case of `NC1(c2ccc(-c3nc4ccn5c(=O)[nH]nc5c4cc3-c3ccccc3)cc2)CCC1` [MK-2206 2HCl], under setting [1], the inhibition of growth at 5 µM was found to be 45.5%.

As to `O=C(O)[C@]1(Cc2cccc(Nc3nccs3)n2)CC[C@@H](Oc2cccc(Cl)c2F)CC1` [MK-5108 (VX-689)], the inhibition of growth at 5 µM under setting [2] is 60.4%.

With `O=C(O)Cn1nnc(-c2cc(N3CCC(Oc4cc(F)ccc4Br)CC3)no2)n1` [MK-8245], under setting [1], the inhibition of growth at 5 µM was 14.5%.

Regarding `O=C(O)c1ccc(Nc2ncc3c(n2)-c2ccc(Cl)cc2C(c2c(F)cccc2F)=NC3)cc1` [MLN8054], the inhibition of growth at 5 µM under setting [1] stood at 58.4%.

As to `COc1cc(Nc2ncc3c(n2)-c2ccc(Cl)cc2C(c2c(F)cccc2OC)=NC3)ccc1C(=O)O` [MLN8237 (Alisertib)], the inhibition of growth at 5 µM under setting [1] turned out to be 58.9%.

For the molecule `CC(C)OC(=O)C(C(=O)OC(C)C)=C1SC=CS1` [Malotilate], under setting [2], the inhibition of growth at 5 µM was 0.5%.

For the molecule `COC(=O)C1=C(C)NC(C)=C(C(=O)OCCN2CCN(C(c3ccccc3)c3ccccc3)CC2)C1c1cccc([N+](=O)[O-])c1` (centres unmarked) [Manidipine (Manyper)], the inhibition of growth at 5 µM under setting [2] turned out to be 1.1%.

As for `CN1CCN(c2c(F)cc3c(=O)c(C(=O)O)cn4c3c2OCN4C)CC1` [Marbofloxacin], under setting [2], the inhibition of growth at 5 µM was 8.7%.

As to `CN1CCN2c3ncccc3Cc3ccccc3C2C1` (centres unmarked) [Mirtazapine (Remeron, Avanza)], the inhibition of growth at 5 µM under setting [2] is 33.1%.

On to `O=C(O)[C@H](CC(=O)N1C[C@H]2CCCC[C@H]2C1)Cc1ccccc1` [Mitiglinide calcium], for which, under setting [1], the inhibition of growth at 5 µM was determined as 0.9%.

As to `CCOC(=O)[C@H](CCc1ccccc1)N[C@@H](C)C(=O)N1Cc2cc(OC)c(OC)cc2C[C@H]1C(=O)O` [Moexipril HCl], under setting [1], the inhibition of growth at 5 µM came to 35.3%.

For `Cc1ccc(S(=O)(=O)OCC(=O)Nc2ccc(C(=O)O)c(O)c2)cc1` [NSC 74859 (S3I-201)], the inhibition of growth at 5 µM under setting [1] was -25.8%.

For the molecule `Fc1cc(-c2cccc3ncc(-c4cnn(C5CCNCC5)c4)nc23)cc(F)c1CN1CCOCC1` [NVP-BSK805 2HCl], the inhibition of growth at 5 µM under setting [2] is 14.6%.

Consider `CNS(=O)(=O)CCc1ccc2[nH]cc(C3CCN(C)CC3)c2c1` [Naratriptan HCl], for which, under setting [1], the inhibition of growth at 5 µM was determined as 0.6%.

In the case of `O[C@H](CNC[C@@H](O)[C@H]1CCc2cc(F)ccc2O1)[C@@H]1CCc2cc(F)ccc2O1` [Nebivolol (Bystolic)], the inhibition of growth at 5 µM under setting [1] is 68.9%.

Take `NC(=O)Cc1cccc(C(=O)c2ccccc2)c1N` [Nepafenac]: the inhibition of growth at 5 µM under setting [2] was -10.3%.

With `CCOc1cc2ncc(C#N)c(Nc3ccc(OCc4ccccn4)c(Cl)c3)c2cc1NC(=O)/C=C/CN(C)C` [Neratinib (HKI-272)], the inhibition of growth at 5 µM under setting [1] was -11.6%.

Turning to `Cc1cn(-c2cc(NC(=O)c3ccc(C)c(Nc4nccc(-c5cccnc5)n4)c3)cc(C(F)(F)F)c2)cn1` [Nilotinib (AMN-107)], under setting [1], the inhibition of growth at 5 µM came out at 0.1%.

Take `C[C@](O)(COc1ccc(C#N)cc1)C(=O)Nc1ccc(C#N)c(C(F)(F)F)c1` [Ostarine (MK-2866)]: the inhibition of growth at 5 µM under setting [1] is 0.7%.

For `CCCCCCCCOc1ccccc1C(=O)Nc1ccc(C(=O)OCC[N+](C)(CC)CC)cc1` [Otilonium Bromide], under setting [2], the inhibition of growth at 5 µM is 0.7%.

Consider `CCN(CC)CC#CCOC(=O)C(O)(c1ccccc1)C1CCCCC1` (centres unmarked) [Oxybutynin (Ditropan)], for which the inhibition of growth at 5 µM under setting [1] is -3.2%.

Take `CN(C)[C@@H]1C(O)=C(C(N)=O)C(=O)[C@@]2(O)C(=O)C3=C(O)c4c(O)cccc4[C@@](C)(O)[C@H]3[C@H](O)[C@@H]12` [Oxytetracycline (Terramycin)]: the inhibition of growth at 5 µM under setting [2] was 33.5%.

In the case of `C=CC(=O)N1CCC[C@@H](n2nc(-c3ccc(Oc4ccccc4)cc3)c3c(N)ncnc32)C1` [PCI-32765 (Ibrutinib)], under setting [2], the inhibition of growth at 5 µM was -0.8%.
